Data: the NIST ThermoML archive (doi:10.1021/je700191v)

Experiment: mn = molality of the nth substance listed, in mol/kg
Conditions: 101 kPa, Liquid

CC1(C)S[C@@H]2[C@H](NC(=O)Cc3ccccc3)C(=O)N2[C@H]1C(=O)[O-].[K+] + O
mass density [kg/m3]
Conditions	293.15 K	298.15 K	303.15 K	308.15 K
m1 = 0.01891	1000.62	999.45	–	–
m1 = 0.01952	–	–	998.081	996.399
m1 = 0.03888	–	–	1000.47	998.73
m1 = 0.03922	1003.15	1001.98	–	–
m1 = 0.05831	–	–	1002.85	1001.06
m1 = 0.05967	1005.7	1004.5	–	–
m1 = 0.07995	–	–	1005.48	1003.59
m1 = 0.08039	1008.26	1007.04	–	–
m1 = 0.1	–	–	1007.88	1006.02
m1 = 0.1008	1010.74	1009.5	–	–
m1 = 0.1193	–	–	1010.19	1008.28
m1 = 0.1217	1013.28	1011.99	–	–
